Patent publication US20130131043A1, “PYRAZOLE COMPOUNDS AS JAK INHIBITORS” (priority 2010, published 2013)

How the values were obtained:
JAK2 = molecular target: T1, JAK2 (Homo sapiens, UniProt O60674); test: Kinobeads assay, JAK2 (competition binding in cell lysate, dot blot detection); details: mixed Molt4/Ramos lysate
T1 construct: endogenous in cells; host or cells: Molt4 (ATCC CRL-1582) and Ramos (ATCC CRL-1596) cell lysate; mixed Molt4/Ramos lysate 1:2
Description: (§1) The compounds of the present invention as described in the previous examples were tested in a Kinobeads™ assay as described for ZAP-70 (WO-A 2007/137867). Briefly, test compounds (at various concentrations) and the affinity matrix with the immobilized aminopyrido-pyrimidine ligand 24 were added to cell lysate aliquots and allowed to bind to the proteins in the lysate sample. After the incubation time the beads with captured proteins were separated from the lysate. Bound proteins were then eluted and the presence of JAK2 and JAK3 was detected and quantified using specific antibodies in a dot blot procedure and the Odyssey infrared detection system. Dose response curves for individual kinases were generated and IC50 values calculated. Kinobeads™ assays for ZAP-70 (WO-A 2007/137867) and for kinase selectivity profiling (WO-A 2006/134056) have been previously described.
(§2) 5×DP buffer: 250 mM Tris-HCl pH 7.4, 25% Glycerol, 7.5 mM MgCl2, 750 mM NaCl, 5 mM Na3VO4; filter the 5×DP buffer through a 0.22 μm filter and store in aliquots at −80° C. The 5×DP buffer is diluted with H2O to 1×DP buffer containing 1 mM DTT and 25 mM NaF.
(§3) Stock solutions of test compounds were prepared in DMSO. In a 96 well plate 30 μL solution of diluted test compounds at 5 mM in DMSO were prepared. Starting with this solution a 1:3 dilution series (9 steps) was prepared. For control experiments (no test compound) a buffer containing 2% DMSO was used.
(§4) Molt4 cells (ATCC catalogue number CRL-1582) and Ramos cells (ATCC catalogue number CRL-1596) were grown in 1 L Spinner flasks (Integra Biosciences, #182101) in suspension in RPMI 1640 medium (Invitrogen, #21875-034) supplemented with 10% Fetal Bovine Serum (Invitrogen) at a density between 0.15×10^6 and 1.2×10^6 cells/mL. Cells were harvested by centrifugation, washed once with 1×PBS buffer (Invitrogen, #14190-094) and cell pellets were frozen in liquid nitrogen and subsequently stored at −80° C. Cells were homogenized in a Potter S homogenizer in lysis buffer: 50 mM Tris-HCl, 0.8% NP40, 5% glycerol, 150 mM NaCl, 1.5 mM MgCl2, 25 mM NaF, 1 mM sodium vanadate, 1 mM DTT, pH 7.5. One complete EDTA-free tablet (protease inhibitor cocktail, Roche Diagnostics, 1873580) per 25 mL buffer was added. The material was dounced 10 times using a mechanized POTTER S, transferred to 50 mL falcon tubes, incubated for 30 minutes on ice and spun down for 10 minutes at 20,000 g at 4° C. (10,000 rpm in Sorvall SLA600, precooled). The supernatant was transferred to an ultracentrifuge (UZ)-polycarbonate tube (Beckmann, 355654) and spun for 1 hour at 100.000 g at 4° C. (33.500 rpm in Ti50.2, precooled). The supernatant was transferred again to a fresh 50 mL falcon tube, the protein concentration was determined by a Bradford assay (BioRad) and samples containing 50 mg of protein per aliquot were prepared. The samples were immediately used for experiments or frozen in liquid nitrogen and stored frozen at −80° C.
(§5) Cell lysate (approximately 50 mg protein per plate) was thawed in a water bath at room temperature and then stored on ice. To the thawed cell lysate 1×DP 0.8% NP40 buffer containing protease inhibitors (1 tablet for 25 mL buffer; EDTA-free protease inhibitor cocktail; Roche Diagnostics 1873580) was added in order to reach a final protein concentration of 10 mg/mL total protein. The diluted cell lysate was stored on ice. Mixed Molt4/Ramos lysate was prepared by combining one volume of Molt4 lysate and two volumes of Ramos lysate (ratio 1:2).
(§6) Plates were sealed and incubated for 3 hours in a cold room on a plate shaker (Heidolph tiramax 1000) at 750 rpm. Afterwards the plate was washed 3 times with 230 μL washing buffer (1×DP 0.4% NP40). The filter plate was placed on top of a collection plate (Greiner bio-one, PP-microplate 96 well V-shape, 65120) and the beads were then eluted with 20 μL of sample buffer (100 mM Tris, pH 7.4, 4% SDS, 0.00025% bromophenol blue, 20% glycerol, 50 mM DTT). […]

JAK3 = molecular target: T2, JAK3 (Homo sapiens, UniProt P52333); test: Kinobeads assay, JAK3 (competition binding in cell lysate, dot blot detection); details: mixed Molt4/Ramos lysate
T2 construct: endogenous in cells; host or cells: Molt4 (ATCC CRL-1582) and Ramos (ATCC CRL-1596) cell lysate; mixed Molt4/Ramos lysate 1:2
T2 sequence (P52333 1-1124): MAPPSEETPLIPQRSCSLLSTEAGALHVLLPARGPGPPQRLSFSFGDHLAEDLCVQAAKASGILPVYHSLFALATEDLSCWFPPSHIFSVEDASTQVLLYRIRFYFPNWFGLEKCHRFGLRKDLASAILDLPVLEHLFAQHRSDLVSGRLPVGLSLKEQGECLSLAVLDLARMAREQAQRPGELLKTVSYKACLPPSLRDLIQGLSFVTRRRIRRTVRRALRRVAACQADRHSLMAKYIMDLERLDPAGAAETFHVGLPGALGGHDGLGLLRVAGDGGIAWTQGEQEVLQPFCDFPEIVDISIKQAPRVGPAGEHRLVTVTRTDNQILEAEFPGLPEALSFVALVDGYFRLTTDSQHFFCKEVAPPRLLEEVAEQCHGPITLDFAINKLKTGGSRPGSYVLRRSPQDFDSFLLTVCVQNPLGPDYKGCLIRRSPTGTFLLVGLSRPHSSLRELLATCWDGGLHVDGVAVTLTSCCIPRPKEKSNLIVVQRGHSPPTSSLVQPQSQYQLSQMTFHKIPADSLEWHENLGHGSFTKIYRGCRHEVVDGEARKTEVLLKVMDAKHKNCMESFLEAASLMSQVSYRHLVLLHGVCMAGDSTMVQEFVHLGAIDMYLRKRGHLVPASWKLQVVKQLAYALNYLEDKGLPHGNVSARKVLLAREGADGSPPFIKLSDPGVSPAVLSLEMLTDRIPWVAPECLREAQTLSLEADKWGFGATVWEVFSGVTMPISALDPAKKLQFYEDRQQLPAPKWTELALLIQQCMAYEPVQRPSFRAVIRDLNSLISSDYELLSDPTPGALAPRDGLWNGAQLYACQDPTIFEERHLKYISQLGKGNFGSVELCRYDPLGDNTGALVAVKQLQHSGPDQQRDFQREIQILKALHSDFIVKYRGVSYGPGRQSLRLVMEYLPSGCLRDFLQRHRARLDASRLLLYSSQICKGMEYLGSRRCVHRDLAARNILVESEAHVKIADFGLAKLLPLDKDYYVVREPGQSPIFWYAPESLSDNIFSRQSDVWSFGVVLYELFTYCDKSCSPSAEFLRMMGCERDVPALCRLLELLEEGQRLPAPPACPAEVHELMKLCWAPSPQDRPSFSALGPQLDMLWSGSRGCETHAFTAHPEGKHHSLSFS
Description: as §1, §2, §3, §4, §5, §6

T1 sequence (O60674 whole entry): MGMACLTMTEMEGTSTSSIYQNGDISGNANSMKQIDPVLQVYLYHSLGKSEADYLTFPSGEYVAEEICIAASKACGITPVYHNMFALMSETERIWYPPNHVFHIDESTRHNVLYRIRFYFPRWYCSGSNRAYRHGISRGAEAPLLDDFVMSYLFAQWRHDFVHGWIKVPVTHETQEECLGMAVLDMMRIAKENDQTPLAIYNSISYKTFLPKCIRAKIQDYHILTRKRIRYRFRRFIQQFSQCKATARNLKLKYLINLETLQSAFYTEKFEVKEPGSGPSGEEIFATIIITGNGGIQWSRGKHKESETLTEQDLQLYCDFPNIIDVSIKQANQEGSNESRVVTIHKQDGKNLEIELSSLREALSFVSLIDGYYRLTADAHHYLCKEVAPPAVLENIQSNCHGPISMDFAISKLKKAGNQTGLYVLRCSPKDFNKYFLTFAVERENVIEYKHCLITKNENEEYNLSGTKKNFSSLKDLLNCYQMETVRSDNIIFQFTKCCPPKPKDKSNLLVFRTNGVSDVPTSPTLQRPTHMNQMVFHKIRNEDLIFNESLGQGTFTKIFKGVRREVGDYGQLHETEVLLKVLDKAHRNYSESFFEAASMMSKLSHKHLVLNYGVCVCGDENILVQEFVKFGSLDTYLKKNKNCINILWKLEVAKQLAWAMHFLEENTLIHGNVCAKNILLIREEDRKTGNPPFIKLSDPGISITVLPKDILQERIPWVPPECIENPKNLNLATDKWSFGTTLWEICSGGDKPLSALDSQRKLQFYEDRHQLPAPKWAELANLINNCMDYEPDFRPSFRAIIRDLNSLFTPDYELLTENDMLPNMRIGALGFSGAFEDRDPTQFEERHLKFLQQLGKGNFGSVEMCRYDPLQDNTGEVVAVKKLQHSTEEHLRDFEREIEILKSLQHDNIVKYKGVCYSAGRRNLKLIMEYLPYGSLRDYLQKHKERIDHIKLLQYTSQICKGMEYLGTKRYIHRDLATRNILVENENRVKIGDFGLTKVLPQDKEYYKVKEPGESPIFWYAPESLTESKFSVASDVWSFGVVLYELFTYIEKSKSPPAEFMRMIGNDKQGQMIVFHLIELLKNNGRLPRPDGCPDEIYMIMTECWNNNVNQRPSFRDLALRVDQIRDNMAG

Structure (SMILES) | IC50 (JAK2) | IC50 (JAK3)
COCC(=O)N1CCCC(Cn2ncc3cnc(Nc4cnn(C)c4)nc32)C1 (stereo not drawn) [Example 21, 2-methoxy-1-(3-((6-((1-methyl-1H-pyrazol-4-yl)amino)-1H-pyrazolo[3,4-d]pyrimidin-1-yl)methyl)piperidin-1-yl)ethanone] | > 10 µM | < 0.1 µM
CC(=O)NC1CCC(n2ncc3cnc(Nc4cnn(C)c4)nc32)CC1 (stereo not drawn) [Example 22, N-(4-(6-((1-methyl-1H-pyrazol-4-yl)amino)-1H-pyrazolo[3,4-d]pyrimidin-1-yl)cyclohexyl)acetamide] | 1 to 10 µM | 0.1 to 1 µM
Cn1cc(Nc2ncc3cnn(CC4CCCN(C(=O)CCS(C)(=O)=O)C4)c3n2)cn1 (stereo not drawn) [Example 23, 1-(3-((6-((1-methyl-1H-pyrazol-4-yl)amino)-1H-pyrazolo[3,4-d]pyrimidin-1-yl)methyl)piperidin-1-yl)-3-(methylsulfonyl)propan-1-one] | 1 to 10 µM | < 0.1 µM
Cn1cc(Nc2ncc3cnn(CC4CCCN(C(=O)CC#N)C4)c3n2)cn1 (stereo not drawn) [Example 26, 3-(3-((6-((1-methyl-1H-pyrazol-4-yl)amino)-1H-pyrazolo[3,4-d]pyrimidin-1-yl)methyl)piperidin-1-yl)-3-oxopropanenitrile] | 1 to 10 µM | < 0.1 µM
CN(C)CC(=O)N1CCCC(Cn2ncc3cnc(Nc4cnn(C)c4)nc32)C1 (stereo not drawn) [Example 29, 2-(dimethylamino)-1-(3-((6-((1-methyl-1H-pyrazol-4-yl)amino)-1H-pyrazolo[3,4-d]pyrimidin-1-yl)methyl)piperidin-1-yl)ethanone] | > 10 µM | 0.1 to 1 µM
Cn1cc(Nc2ncc3cnn(CCC4CCCNC4)c3n2)cn1 (stereo not drawn) [Example 30, N-(1-methyl-1H-pyrazol-4-yl)-1-(2-(piperidin-3-yl)ethyl)-1H-pyrazolo[3,4-d]pyrimidin-6-amine] | > 10 µM | 0.1 to 1 µM
CCS(=O)(=O)N1CCCC(Cn2ncc3cnc(Nc4cnn(C)c4)nc32)C1 (stereo not drawn) [Example 31, 1-((1-(ethylsulfonyl)piperidin-3-yl)methyl)-N-(1-methyl-1H-pyrazol-4-yl)-1H-pyrazolo[3,4-d]pyrimidin-6-amine] | 1 to 10 µM | < 0.1 µM
Cn1cc(Nc2ncc3cnn(CCC4CCCN(S(C)(=O)=O)C4)c3n2)cn1 (stereo not drawn) [Example 34, N-(1-methyl-1H-pyrazol-4-yl)-1-(2-(1-(methylsulfonyl)piperidin-3-yl)ethyl)-1H-pyrazolo[3,4-d]pyrimidin-6-amine] | 1 to 10 µM | 0.1 to 1 µM
COCCN1CCCC(Cn2ncc3cnc(Nc4cnn(C)c4)nc32)C1 (stereo not drawn) [Example 35, 1-((1-(2-methoxyethyl)piperidin-3-yl)methyl)-N-(1-methyl-1H-pyrazol-4-yl)-1H-pyrazolo[3,4-d]pyrimidin-6-amine] | > 10 µM | < 0.1 µM
CCOC(=O)N1CCCC(Cn2ncc3cnc(Nc4cnn(C)c4)nc32)C1 (stereo not drawn) [Example 36, ethyl 3-((6-((1-methyl-1H-pyrazol-4-yl)amino)-1H-pyrazolo[3,4-d]pyrimidin-1-yl)methyl)piperidine-1-carboxylate] | > 10 µM | 0.1 to 1 µM
CSCCN1CCCC(Cn2ncc3cnc(Nc4cnn(C)c4)nc32)C1 (stereo not drawn) [Example 37, N-(1-methyl-1H-pyrazol-4-yl)-1-((1-(2-(methylthio)ethyl)piperidin-3-yl)methyl)-1H-pyrazolo[3,4-d]pyrimidin-6-amine] | > 10 µM | < 0.1 µM

Other lines, results leading:

IC50 (JAK2) | IC50 (JAK3) | Structure (SMILES)
1 to 10 µM | 0.1 to 1 µM | Cn1cc(Nc2ncc3cnn(C4CCN(C(=O)CC#N)CC4)c3n2)cn1 [Example 24, 3-(4-(6-((1-methyl-1H-pyrazol-4-yl)amino)-1H-pyrazolo[3,4-d]pyrimidin-1-yl)piperidin-1-yl)-3-oxopropanenitrile]
> 10 µM | 0.1 to 1 µM | Cn1cc(Nc2ncc3cnn(C4CCCN(C(=O)CC#N)C4)c3n2)cn1 (stereo not drawn) [Example 25, 3-(3-(6-((1-methyl-1H-pyrazol-4-yl)amino)-1H-pyrazolo[3,4-d]pyrimidin-1-yl)piperidin-1-yl)-3-oxopropanenitrile]
1 to 10 µM | 0.1 to 1 µM | COCCC(=O)N1CCCC(Cn2ncc3cnc(Nc4cnn(C)c4)nc32)C1 (stereo not drawn) [Example 27, 3-methoxy-1-(3-((6-((1-methyl-1H-pyrazol-4-yl)amino)-1H-pyrazolo[3,4-d]pyrimidin-1-yl)methyl)piperidin-1-yl)propan-1-one]
> 10 µM | 0.1 to 1 µM | Cn1cc(Nc2ncc3cnn(CC4CCCN(C(=O)C5CCOCC5)C4)c3n2)cn1 (stereo not drawn) [Example 28, (3-((6-((1-methyl-1H-pyrazol-4-yl)amino)-1H-pyrazolo[3,4-d]pyrimidin-1-yl)methyl)piperidin-1-yl)(tetrahydro-2H-pyran-4-yl)methanone]
1 to 10 µM | < 0.1 µM | CC(C)S(=O)(=O)N1CCCC(Cn2ncc3cnc(Nc4cnn(C)c4)nc32)C1 (stereo not drawn) [Example 32, 1-((1-(isopropylsulfonyl)piperidin-3-yl)methyl)-N-(1-methyl-1H-pyrazol-4-yl)-1H-pyrazolo[3,4-d]pyrimidin-6-amine]
1 to 10 µM | < 0.1 µM | Cn1cc(Nc2ncc3cnn(CC4CCCN(S(=O)(=O)C5CC5)C4)c3n2)cn1 (stereo not drawn) [Example 33, 1-((1-(cyclopropylsulfonyl)piperidin-3-yl)methyl)-N-(1-methyl-1H-pyrazol-4-yl)-1H-pyrazolo[3,4-d]pyrimidin-6-amine]
> 10 µM | 0.1 to 1 µM | COC(=O)N1CCCC(Cn2ncc3cnc(Nc4cnn(C)c4)nc32)C1 (stereo not drawn) [Example 38, methyl 3-((6-((1-methyl-1H-pyrazol-4-yl)amino)-1H-pyrazolo[3,4-d]pyrimidin-1-yl)methyl)piperidine-1-carboxylate]
